Earlier results in PMC5613062 (Investigational New Drugs, 2017).
Read-outs that look alike come from different tables or passages of the source.

Legend:
[1] = test system: SW620 human colorectal cancer xenograft; set-up: method as in earlier work; conditions: ref IB, cited from earlier work
CYP1A2 = test system: CYP1A2; set-up: method as in earlier work; conditions: at concentrations up to 50uM; ref IB; cited from earlier work
CYP 2D6 = test system: CYP 2D6; set-up: method as in earlier work; conditions: at concentrations up to 50uM; ref IB; cited from earlier work
[2] = set-up: method as in earlier work; conditions: mouse; ref IB; cited from earlier work
[3] = set-up: method as in earlier work; conditions: ref IB; cited from earlier work
[4] = set-up: method as in earlier work; conditions: predominantly via an aneugenic mode of action; ref IB; cited from earlier work
[5] = set-up: method as in protocol D1532C00004; conditions: protocol rationale for QD dosing; ref protocol D1532C00004; cited from earlier work

SMILES: Cn1cnc2c(F)c(Nc3ccc(Br)cc3Cl)c(C(=O)NOCCO)cc21 [Selumetinib]
- Tumor growth inhibition as a % of control ([1]; AZD6244 25 mg/kg BD, irinotecan 25 mg/kg once weekly, docetaxel 15 mg/kg once weekly): 74 % of control
- Tumor growth inhibition as a % of control ([1]; temozolamide experiment, usual monotherapy schedules, doses not given): 58 % of control
- inhibition of CYP1A2 (CYP1A2): no inhibition
- inhibition of CYP2D6 (CYP 2D6): no inhibition
- Protein binding [2]: 98.9%
- mutagenic or clastogenic potential in vitro [3]: no evidence of mutagenic or clastogenic potential
- mouse micronucleus result [4]: increase in micronucleated immature erythrocytes (MIE)
- half-life [5]: ~ 6 hours
